Measured values from ChEMBL document CHEMBL1155928, “Synthesis and structure-activity relationships of berberine analogues as a novel class of low-density-lipoprotein receptor up-regulators” (2008).

Tested on: HepG2
Assay: Upregulation of LDLR mRNA expression in human HepG2 cells after 8 hrs by RT-PCR relative to control
Type: functional

SMILES	Activity
COc1cc2cc3[n+](cc2cc1O)CCc1cc2c(cc1-3)OCO2.[Cl-]	1.6
CCOc1ccc2cc3[n+](cc2c1OCC)CCc1cc2c(cc1-3)OCO2.[Cl-]	2.13
COc1cc2cc3[n+](cc2c(OC)c1OC)CCc1cc2c(cc1-3)OCO2.[Cl-]	3.16
CCCOc1cc2c[n+]3c(cc2cc1OC)-c1cc2c(cc1CC3)OCO2.[Cl-]	1.94
CCOc1cc2c[n+]3c(cc2cc1OC)-c1cc2c(cc1CC3)OCO2.[Cl-]	2.17
CCOc1cc2cc3[n+](cc2cc1OC)CCc1cc2c(cc1-3)OCO2.[Cl-]	2.1
COc1cc2c[n+]3c(cc2c(OC)c1OC)-c1cc2c(cc1CC3)OCO2.[Cl-]	3.01
CCCOc1ccc2cc3[n+](cc2c1OCCC)CCc1cc2c(cc1-3)OCO2.[Cl-]	2.21
CCOc1ccc2cc3[n+](cc2c1)CCc1cc2c(cc1-3)OCO2.[Cl-]	2.9
CCCOc1cc2cc3[n+](cc2cc1OC)CCc1cc2c(cc1-3)OCO2.[Cl-]	2.35
CCOc1ccc2cc3[n+](cc2c1OC)CCc1cc2c(cc1-3)OCO2.[Cl-]	2.35
COc1cc2cc3[n+](cc2cc1OC)CCc1cc2c(cc1-3)OCO2.[Cl-] [PSEUDOBERBERINE]	8.5
Oc1ccc2cc3[n+](cc2c1)CCc1cc2c(cc1-3)OCO2.[Cl-]	5.16
[Cl-].c1ccc2c[n+]3c(cc2c1)-c1cc2c(cc1CC3)OCO2	2.95
COc1ccc2cc3[n+](cc2c1)CCc1cc2c(cc1-3)OCO2.[Cl-]	2
CCCOc1ccc2cc3[n+](cc2c1OC)CCc1cc2c(cc1-3)OCO2.[Cl-]	2.3
COc1ccc2cc3[n+](cc2c1OC)CCc1cc2c(cc1-3)OCO2.[Cl-] [BERBERINE CHLORIDE]	5.3
CCOc1cc2c[n+]3c(cc2cc1O)-c1cc2c(cc1CC3)OCO2.[Cl-]	1.8
COc1cc2c[n+]3c(cc2cc1O)-c1cc2c(cc1CC3)OCO2.[Cl-]	2.2
CCCOc1ccc2cc3[n+](cc2c1)CCc1cc2c(cc1-3)OCO2.[Cl-]	2.13
